PubChem BioAssay AID651977 (The Scripps Research Institute Molecular Screening Center, 2013)
The source made the active and inactive calls. How the calls were made is not given here.

What follows are compounds tested against Steroidogenic factor 1 (Homo sapiens) (UniProt Q13285) (assay: dose-dependent inverse agonism at SF1 – cell-based, luminescence, dose response, selectivity assay for LRH-1 inverse agonist project, late-stage follow-up (AID 651977)). Conditions: SF1 cell-based luciferase reporter.
Steroidogenic factor 1 (Homo sapiens), sequence (Q13285 whole entry, looked up): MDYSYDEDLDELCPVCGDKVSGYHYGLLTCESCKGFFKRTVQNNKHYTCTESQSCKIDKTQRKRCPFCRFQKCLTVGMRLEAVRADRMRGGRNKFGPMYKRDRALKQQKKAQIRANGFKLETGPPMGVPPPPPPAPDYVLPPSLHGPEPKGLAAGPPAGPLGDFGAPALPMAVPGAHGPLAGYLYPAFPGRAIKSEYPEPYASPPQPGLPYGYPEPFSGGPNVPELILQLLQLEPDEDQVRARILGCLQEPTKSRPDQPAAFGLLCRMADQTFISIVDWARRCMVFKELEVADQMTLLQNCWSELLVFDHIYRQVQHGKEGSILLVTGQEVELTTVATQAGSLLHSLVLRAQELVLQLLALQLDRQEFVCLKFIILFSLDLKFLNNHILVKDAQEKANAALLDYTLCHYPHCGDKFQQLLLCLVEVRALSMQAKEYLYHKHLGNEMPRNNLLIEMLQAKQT

SMILES	IC50
CCCc1cc(=O)oc2cc(C)cc(OCC(=O)NC3CC3)c12	2.67 µM
COc1ccc(-n2c(N)c(C(=O)NCc3cccnc3)sc2=S)cc1	> 35.9 µM (inactive)
CCCc1cc(=O)oc2cc(OCC(=O)NCc3ccccn3)ccc12	> 35.9 µM (inactive)
O=C(CSc1nnc(CNC(=O)c2ccccc2F)o1)Nc1ccc2c(c1)OCCO2	> 35.9 µM (inactive)
O=C(COc1ccc2c3c(c(=O)oc2c1)CCC3)NCc1ccncc1	> 35.9 µM (inactive)
COC(=O)c1ccc(CNC(=O)COC(=O)c2cc(Cl)nc(Cl)c2)cc1	inactive
CCn1c(SCC(=O)Nc2ccc(Cl)cc2)nnc1C1CC1	> 35.9 µM (inactive)
COc1ccc(CCNC(=O)COC(=O)c2cccn2C)cc1	> 35.9 µM (inactive)
Cc1cccc(NC(=O)COC(=O)Cc2cccs2)c1C	> 35.9 µM (inactive)
Cc1cc(Br)ccc1NC(=O)CSc1nnc(CN2CCOCC2)n1C	> 35.9 µM (inactive)
CCCc1cc(=O)oc2cc(OCC(=O)NCCc3ccc(S(N)(=O)=O)cc3)ccc12	inactive
CCCc1cc(=O)oc2c(C)c(OCC(=O)NCCCn3ccnc3)ccc12	6.68 µM
COCC(=O)NC1CCN(CC(=O)Nc2ccc(OC)cc2[N+](=O)[O-])CC1	> 35.9 µM (inactive)
CC(=O)c1ccc(NC(=O)C(C)O/N=C(\N)c2ccccc2)cc1 (stereo not given)	inactive
CCOc1ccc(NC(=O)CN2CCN(CC(=O)Nc3ccc(OC)cc3)CC2)cc1	> 35.9 µM (inactive)
COC(=O)c1ccc(NC(=O)COc2cccc(-n3cnnn3)c2)cc1	> 12 µM (inactive)
CCCc1nnc(SCC(=O)Nc2ccc(C(=O)OCC)cc2)o1	> 35.9 µM (inactive)
Cc1sc(NC(=O)C(C)C)c(C(=O)Nc2ccccc2)c1C	9.22 µM
O=C(OCC(=O)N1CCN(C(=O)COC(=O)c2ccc(O)cc2O)CC1)c1ccc(O)cc1O	3.55 µM
COc1ccc(NC(=O)CSc2ccc3c(c2)OCCO3)cc1	> 35.9 µM (inactive)
N#CCSc1ccccc1NC(=O)CN1C(=O)C2CC=CCC2C1=O (stereo not given)	> 35.9 µM (inactive)
CCc1cc(=O)[nH]c(SCC(=O)Nc2ccc3c(c2)OCCO3)n1	> 35.9 µM (inactive)
CC(=O)c1ccc(OC(C)C(=O)OCC(=O)NCCc2ccccc2)cc1 (stereo not given)	> 35.9 µM (inactive)

SMILES	IC50
COc1ccc(NC(=O)CSc2sc3c(O)cc(=O)[nH]c3c2C#N)c(OC)c1	> 35.9 µM (inactive)
O=C(COC(=O)CCN1C(=O)C2CC=CCC2C1=O)NCCc1ccc(F)cc1 (stereo not given)	> 35.9 µM (inactive)
O=C(Nc1nc2c(Cl)cccc2s1)c1ccc([N+](=O)[O-])o1	> 12 µM (inactive)
CCOc1ccc(NC(=O)CSc2nncc(=O)n2N)cc1	> 35.9 µM (inactive)
COC(=O)c1ccc(NC(=O)CSc2nn3c(=O)c(C)nnc3s2)cc1	> 35.9 µM (inactive)
COC(=O)c1ccc(NC(=O)CSc2ccc(-c3ccccn3)nn2)cc1	> 35.9 µM (inactive)
CCOc1ccc(NC(=O)COC(=O)c2ccc3c(c2)OCCO3)cc1	> 12 µM (inactive)
COc1ccc(C2(C)NC(=O)N(CC(=O)NCCC3=CCCCC3)C2=O)cc1OC (stereo not given)	> 12 µM (inactive)
COC(=O)c1ccc(NC(=O)CSc2nc3ncccc3[nH]2)cc1	> 35.9 µM (inactive)
CCOc1ccc(NC(=O)COC(=O)CC2CCCCC2)cc1	> 35.9 µM (inactive)
Cc1ccc(NC(=O)COC(=O)C(NS(=O)(=O)c2ccc(Cl)cc2)C(C)O)c(Br)c1 (stereo not given)	> 35.9 µM (inactive)
Cc1cc(=O)oc2c(C)c(OCC(=O)NC3CC(C)(C)NC(C)(C)C3)ccc12	> 35.9 µM (inactive)
CC1SC(C)C(=O)N(CC(=O)Nc2ccc3c(c2)OCO3)C1=O (stereo not given)	> 35.9 µM (inactive)
COC(=O)c1ccc(NC(=O)CN2CCN(c3ccc(Cl)cc3)CC2)cc1	> 35.9 µM (inactive)
CCOc1ccc(NC(=O)COC(=O)COc2cccc3c2OC(C)(C)C3)cc1	> 35.9 µM (inactive)
Cc1cc(C)c2sc(NC(=O)c3ccc([N+](=O)[O-])o3)nc2c1	> 35.9 µM (inactive)
COCCn1c(C)cc(/C=C(\C#N)C(=O)OCC(=O)Nc2ccc(S(N)(=O)=O)cc2)c1C	> 35.9 µM (inactive)
O=c1[nH]c(Nc2ccc3c(c2)OCCO3)nnc1Cc1ccccc1	> 12 µM (inactive)
O=C(COC(=O)c1ccc[n+]([O-])c1)Nc1ccc([N+](=O)[O-])cc1Cl	> 35.9 µM (inactive)
O=C(NCC1CCCO1)c1ccc(NC(=O)c2cccc([N+](=O)[O-])c2)cc1 (stereo not given)	1.02 µM
Cc1cc(Br)ccc1NC(=O)CN1C(=O)C2CC=CCC2C1=O (stereo not given)	0.351 µM
COc1ccc(CCNC(=O)COC(=O)c2cc(Cl)nc(Cl)c2)cc1	> 35.9 µM (inactive)
